Several values for one entry are separate records, joined by “and”; a condition that tells them apart may be missing. Equal values may be shown once. Where a name gives a salt, the structure may show the parent alone.
Test: Content uniformity of the Example 2 lotion: product from ten individual pumps weighed and assayed for content of each drug
Format: physicochemical
Details: for average amount contained in a gram of lotion product: per gram of lotion; for assay values, % of label claim / USP Acceptance Value (AV): ten pump samples; for USP Acceptance Value (AV): limit of 15
Protocol: The content uniformity of the lotion was determined by assaying product from ten individual pumps spaced equally over the content of the bottle. After the pump was primed, product from ten pumps was collected by taking product from approximately every tenth pump. The product from each pump was weighed and assayed for content of each drug.

[1] = Example 2 lotion, average ± standard deviation of ten pump samples
[2] = Example 2 lotion, average ± standard deviation of ten pump samples, label claim 20 mg/g
[3] = Example 2 lotion, individual pump samples No. 1-10, label claim 20 mg/g (2.0%), dihydrochloride
[4] = Example 2 lotion, individual pump samples No. 1-10, label claim 20 mg/g (2.0%)

average amount contained in lotion product, % w/w (Example 2 lotion) | Levocitirizine dihydrochloride Wt. (mg/g), Average [1] | Levocitirizine dihydrochloride % Label Claim, Average [2] | average amount contained in a gram of lotion product (Example 2 lotion) | assay values, % of label claim (Example 2 lotion) | USP Acceptance Value (AV) (Example 2 lotion) | Mupirocin Wt. (mg/g), Average [1] | Mupirocin % Label Claim, Average [2] | Cyanocobalamin Wt. (mg/g), Average [1] | Cyanocobalamin % Label Claim, Average (Example 2 lotion, average ± standard deviation of ten pump samples, label claim 0.7 mg/g) | Molecule | Levocitirizine dihydrochloride % Label Claim [3] | Levocitirizine dihydrochloride Wt. [3] | Mupirocin % Label Claim [4] | Mupirocin Wt. [4] | Cyanocobalamin Wt. (Example 2 lotion at maximum strength, individual pump samples No. 1-10, label claim 0.7 mg/g (0.07%)) | Cyanocobalamin % Label Claim (Example 2 lotion, individual pump samples No. 1-10, label claim 0.7 mg/g (0.07%))
1.97 % w/w | 19.76 ± 0.55 mg/g | 98.79 ± 2.77% | 19.76 mg | 90-110% | 6.66 | – | – | – | – | O=C(O)COCCN1CCN([C@H](c2ccccc2)c2ccc(Cl)cc2)CC1 [Levocitirizine dihydrochloride, levocetirizine dihydrochloride] | 97.15% and 96.00% and 102.10% and 103.90% and 99.90% and 101.10% and 96.80% and 95.80% and 96.75% and 97.75% | 19.43 mg/g and 19.32 mg/g and 20.42 mg/g and 20.78 mg/g and 19.98 mg/g and 20.22 mg/g and 19.36 mg/g and 19.16 mg/g and 19.35 mg/g and 19.55 mg/g | – | – | – | –
1.93 % w/w | – | – | 19.32 mg | 90-110% | 6.44 | 19.32 ± 0.38 mg/g | 96.62 ± 1.90% | – | – | C/C(=C\C(=O)OCCCCCCCCC(=O)O)C[C@@H]1OC[C@H](C[C@@H]2O[C@H]2[C@@H](C)[C@H](C)O)[C@@H](O)[C@H]1O [Mupirocin, mupirocin] | – | – | 99.60% and 96.00% (2×) and 96.10% and 95.85% and 98.55% and 95.70% and 92.90% and 98.45% and 97.00% | 19.92 mg/g and 19.20 mg/g (2×) and 19.22 mg/g and 19.17 mg/g and 19.71 mg/g and 19.14 mg/g and 18.58 mg/g and 19.69 mg/g and 19.40 mg/g | – | –
0.07 % w/w | – | – | 0.697 mg | 90-110% | 4.45 | – | – | 0.697 ± 0.013 mg/g | 99.54 ± 1.86% | cyanocobalamin | – | – | – | – | 0.723 mg/g and 0.711 mg/g and 0.694 mg/g and 0.696 mg/g (2×) and 0.682 mg/g (2×) and 0.701 mg/g and 0.684 mg/g and 0.699 mg/g | 103.29% and 101.57% and 99.14% and 99.43% (2×) and 97.43% (2×) and 100.14% and 97.71% and 99.86%

— patent US20160008777A1, “PHARMACEUTICAL COMPOUNDING KIT” (Novotec Consulting Inc., priority 2014, published 2016)
